Data reported in article PMC4447944 (The Journal of Biological Chemistry, 2015).
pIC50: −log10 of the molar value.

Key:
hLRRK2(G2019S) = target: T1, hLRRK2(G2019S) (Homo sapiens, UniProt Q5S007, G2019S); assay: KINOMEscan; format: binding
T1 construct: purchased DiscoverX (KINOMEscan platform)

hPPARδ = target: T2, hPPARδ (Homo sapiens, UniProt Q03181); assay: Nuclear hormone receptor assay (Eurofins-CEREP); conditions: read-out: Relative IC50
T2 construct: Eurofins-CEREP

hERK4 = target: T3, hERK4 (Homo sapiens, UniProt P31152); assay: KINOMEscan; format: binding
T3 construct: purchased DiscoverX

hLOK = target: T4, hLOK (Homo sapiens, UniProt O94804); assay: KINOMEscan; format: binding
T4 construct: purchased DiscoverX (KINOMEscan platform)

hEGFR = target: T5, hEGFR (Homo sapiens, UniProt P00533); assay: KINOMEscan; format: binding
T5 construct: purchased DiscoverX

hH1 [1] = target: T6, hH1 (Homo sapiens, UniProt P35367); assay: Ca Mobilization Agonist (Eurofins-CEREP); conditions: @ 13.3 μM
hEGFR(T790M) = target: T7, hEGFR(T790M) (Homo sapiens, UniProt P00533, T790M); assay: KINOMEscan; format: binding
T7 construct: purchased DiscoverX

hMERTK = target: T8, hMERTK (Homo sapiens, UniProt Q12866); assay: KINOMEscan; format: binding
T8 construct: purchased DiscoverX

hMAP4K3 = target: T9, hMAP4K3 (Homo sapiens, UniProt Q8IVH8); assay: KINOMEscan; format: binding
T9 construct: purchased DiscoverX (KINOMEscan platform)

hEPHB1 = target: T10, hEPHB1 (Homo sapiens, UniProt P54762); assay: KINOMEscan; format: binding
T10 construct: purchased DiscoverX

hTRKA = target: T11, hTRKA (Homo sapiens, UniProt P04629); assay: KINOMEscan; format: binding
T11 construct: purchased DiscoverX

hCAMK1G = target: T12, hCAMK1G (Homo sapiens, UniProt Q96NX5); assay: KINOMEscan; format: binding
T12 construct: purchased DiscoverX

hERK1 = target: T13, hERK1 (Homo sapiens, UniProt P27361); assay: KINOMEscan; format: binding
T13 construct: purchased DiscoverX

hABL1(pE255K) = target: T14, hABL1(pE255K) (Homo sapiens, UniProt P00519, E255K); assay: KINOMEscan; format: binding
T14 construct: purchased DiscoverX (KINOMEscan platform)

hWEE2 = target: T15, hWEE2 (Homo sapiens, UniProt P0C1S8); assay: KINOMEscan; format: binding
T15 construct: purchased DiscoverX

hSBK1 = target: T16, hSBK1 (Homo sapiens, UniProt Q52WX2); assay: KINOMEscan; format: binding
T16 construct: purchased DiscoverX (KINOMEscan platform)

hD2L = hD2L (Homo sapiens, UniProt P14416); assay: cAMP Potentiation (Eurofins-CEREP); conditions: @ 10 μM
hBTK = target: T17, hBTK (Homo sapiens, UniProt Q06187); assay: KINOMEscan; format: binding
T17 construct: purchased DiscoverX

hJNK3 = target: T18, hJNK3 (Homo sapiens, UniProt P53779); assay: KINOMEscan; format: binding
T18 construct: purchased DiscoverX (KINOMEscan panel)

[2] = target: T19, hRPS6KA5(Kin.Dom.2-C-term) (Homo sapiens, UniProt O75582); assay: KINOMEscan; format: binding
T19 construct: hRPS6KA5(Kin.Dom.2-C-term); purchased DiscoverX (KINOMEscan platform)

hARK5 = target: T20, hARK5 (Homo sapiens, UniProt O60285); assay: KINOMEscan; format: binding
T20 construct: purchased DiscoverX

hDYRK2 = target: T21, hDYRK2 (Homo sapiens, UniProt Q92630); assay: KINOMEscan; format: binding
T21 construct: purchased DiscoverX

hH1 [3] = target: T6, hH1; assay: β-arrestin Antagonist (Eurofins-CEREP); conditions: read-out: % Effect, Inhibition
[4] = target: T22, hRPS6KA4(Kin.Dom.2-C-term) (Homo sapiens, UniProt O75676); assay: KINOMEscan; format: binding
T22 construct: hRPS6KA4(Kin.Dom.2-C-term); purchased DiscoverX (KINOMEscan platform)

hCAMK1D = target: T23, hCAMK1D (Homo sapiens, UniProt Q8IU85); assay: KINOMEscan; format: binding
T23 construct: purchased DiscoverX

hTESK1 = target: T24, hTESK1 (Homo sapiens, UniProt Q15569); assay: KINOMEscan; format: binding
T24 construct: purchased DiscoverX

hCSNK1A1L = target: T25, hCSNK1A1L (Homo sapiens, UniProt Q8N752); assay: KINOMEscan; format: binding
T25 construct: purchased DiscoverX (KINOMEscan platform)

hBMPR2 = target: T26, hBMPR2 (Homo sapiens, UniProt Q13873); assay: KINOMEscan; format: binding
T26 construct: purchased DiscoverX

hSTK33 = target: T27, hSTK33 (Homo sapiens, UniProt Q9BYT3); assay: KINOMEscan; format: binding
T27 construct: purchased DiscoverX (KINOMEscan platform)

hMEK5 = target: T28, hMEK5 (Homo sapiens, UniProt Q13163); assay: KINOMEscan; format: binding
T28 construct: purchased DiscoverX

T6 sequence (P35367 whole entry): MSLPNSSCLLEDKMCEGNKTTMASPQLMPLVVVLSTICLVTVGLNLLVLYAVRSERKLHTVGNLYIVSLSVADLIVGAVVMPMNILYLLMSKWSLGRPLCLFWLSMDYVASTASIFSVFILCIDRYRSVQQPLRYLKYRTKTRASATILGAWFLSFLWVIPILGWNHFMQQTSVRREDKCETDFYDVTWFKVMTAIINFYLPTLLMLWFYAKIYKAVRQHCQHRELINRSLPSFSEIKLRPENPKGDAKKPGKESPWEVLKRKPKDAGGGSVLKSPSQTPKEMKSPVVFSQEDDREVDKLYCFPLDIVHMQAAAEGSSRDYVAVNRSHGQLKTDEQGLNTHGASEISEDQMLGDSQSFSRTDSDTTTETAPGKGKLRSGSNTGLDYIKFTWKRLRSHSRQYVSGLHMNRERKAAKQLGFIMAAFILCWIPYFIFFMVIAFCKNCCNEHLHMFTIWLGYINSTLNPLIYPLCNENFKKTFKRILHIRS
T3 sequence (P31152 whole entry): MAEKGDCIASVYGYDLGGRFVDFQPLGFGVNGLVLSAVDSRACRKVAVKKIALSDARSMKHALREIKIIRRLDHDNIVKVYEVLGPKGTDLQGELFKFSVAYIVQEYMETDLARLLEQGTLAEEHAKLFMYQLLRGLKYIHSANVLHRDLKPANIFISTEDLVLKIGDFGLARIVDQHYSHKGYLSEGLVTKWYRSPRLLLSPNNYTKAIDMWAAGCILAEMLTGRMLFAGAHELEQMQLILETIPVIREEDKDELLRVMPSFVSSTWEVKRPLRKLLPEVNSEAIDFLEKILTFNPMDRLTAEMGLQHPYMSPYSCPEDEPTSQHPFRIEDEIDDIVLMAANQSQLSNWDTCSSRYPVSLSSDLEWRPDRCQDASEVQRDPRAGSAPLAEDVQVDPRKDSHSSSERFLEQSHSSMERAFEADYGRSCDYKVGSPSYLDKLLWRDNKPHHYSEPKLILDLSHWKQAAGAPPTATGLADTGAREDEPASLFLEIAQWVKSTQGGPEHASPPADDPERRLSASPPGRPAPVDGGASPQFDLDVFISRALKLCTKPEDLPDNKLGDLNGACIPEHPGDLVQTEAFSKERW
T25 sequence (Q8N752 whole entry): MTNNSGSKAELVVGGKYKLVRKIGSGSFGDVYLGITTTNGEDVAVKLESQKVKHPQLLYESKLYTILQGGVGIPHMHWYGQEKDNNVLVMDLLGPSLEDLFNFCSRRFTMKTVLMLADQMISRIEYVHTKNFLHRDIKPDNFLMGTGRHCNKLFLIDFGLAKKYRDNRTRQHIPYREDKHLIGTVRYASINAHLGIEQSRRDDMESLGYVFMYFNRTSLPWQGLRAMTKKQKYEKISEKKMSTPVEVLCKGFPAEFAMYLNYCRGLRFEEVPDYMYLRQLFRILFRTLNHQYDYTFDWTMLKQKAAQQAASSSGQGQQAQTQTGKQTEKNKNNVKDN
T7 sequence (P00533 25-1210 T790M): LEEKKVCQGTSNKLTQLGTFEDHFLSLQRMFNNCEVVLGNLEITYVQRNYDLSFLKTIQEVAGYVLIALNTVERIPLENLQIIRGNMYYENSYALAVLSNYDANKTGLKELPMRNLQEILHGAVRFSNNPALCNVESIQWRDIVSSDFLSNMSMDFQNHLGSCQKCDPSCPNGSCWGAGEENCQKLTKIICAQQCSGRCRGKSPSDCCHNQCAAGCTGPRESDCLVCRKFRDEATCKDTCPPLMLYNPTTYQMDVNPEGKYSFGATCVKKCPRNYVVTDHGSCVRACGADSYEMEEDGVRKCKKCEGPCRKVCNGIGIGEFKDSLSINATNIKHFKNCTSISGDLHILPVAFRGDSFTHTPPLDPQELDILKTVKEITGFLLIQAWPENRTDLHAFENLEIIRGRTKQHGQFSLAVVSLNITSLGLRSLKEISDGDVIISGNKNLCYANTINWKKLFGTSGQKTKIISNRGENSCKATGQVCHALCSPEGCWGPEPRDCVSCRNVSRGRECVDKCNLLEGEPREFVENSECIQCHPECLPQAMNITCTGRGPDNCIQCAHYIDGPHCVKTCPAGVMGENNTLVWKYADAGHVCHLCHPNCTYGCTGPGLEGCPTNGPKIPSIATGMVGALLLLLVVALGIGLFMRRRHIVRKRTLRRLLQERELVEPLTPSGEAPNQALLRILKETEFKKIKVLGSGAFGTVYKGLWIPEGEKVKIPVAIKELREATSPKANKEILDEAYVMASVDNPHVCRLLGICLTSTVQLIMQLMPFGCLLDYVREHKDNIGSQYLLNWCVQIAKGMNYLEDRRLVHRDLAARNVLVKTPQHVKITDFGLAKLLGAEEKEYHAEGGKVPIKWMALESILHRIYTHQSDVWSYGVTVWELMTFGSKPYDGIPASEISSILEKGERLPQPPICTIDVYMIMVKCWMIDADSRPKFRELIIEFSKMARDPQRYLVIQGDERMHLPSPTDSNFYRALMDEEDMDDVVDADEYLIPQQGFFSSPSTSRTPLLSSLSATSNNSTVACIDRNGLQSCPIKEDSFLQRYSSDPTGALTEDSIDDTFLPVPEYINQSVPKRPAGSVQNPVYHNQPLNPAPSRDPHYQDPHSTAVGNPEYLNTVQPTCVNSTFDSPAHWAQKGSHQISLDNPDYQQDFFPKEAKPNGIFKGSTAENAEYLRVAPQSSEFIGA
T14 sequence (P00519 whole entry E255K): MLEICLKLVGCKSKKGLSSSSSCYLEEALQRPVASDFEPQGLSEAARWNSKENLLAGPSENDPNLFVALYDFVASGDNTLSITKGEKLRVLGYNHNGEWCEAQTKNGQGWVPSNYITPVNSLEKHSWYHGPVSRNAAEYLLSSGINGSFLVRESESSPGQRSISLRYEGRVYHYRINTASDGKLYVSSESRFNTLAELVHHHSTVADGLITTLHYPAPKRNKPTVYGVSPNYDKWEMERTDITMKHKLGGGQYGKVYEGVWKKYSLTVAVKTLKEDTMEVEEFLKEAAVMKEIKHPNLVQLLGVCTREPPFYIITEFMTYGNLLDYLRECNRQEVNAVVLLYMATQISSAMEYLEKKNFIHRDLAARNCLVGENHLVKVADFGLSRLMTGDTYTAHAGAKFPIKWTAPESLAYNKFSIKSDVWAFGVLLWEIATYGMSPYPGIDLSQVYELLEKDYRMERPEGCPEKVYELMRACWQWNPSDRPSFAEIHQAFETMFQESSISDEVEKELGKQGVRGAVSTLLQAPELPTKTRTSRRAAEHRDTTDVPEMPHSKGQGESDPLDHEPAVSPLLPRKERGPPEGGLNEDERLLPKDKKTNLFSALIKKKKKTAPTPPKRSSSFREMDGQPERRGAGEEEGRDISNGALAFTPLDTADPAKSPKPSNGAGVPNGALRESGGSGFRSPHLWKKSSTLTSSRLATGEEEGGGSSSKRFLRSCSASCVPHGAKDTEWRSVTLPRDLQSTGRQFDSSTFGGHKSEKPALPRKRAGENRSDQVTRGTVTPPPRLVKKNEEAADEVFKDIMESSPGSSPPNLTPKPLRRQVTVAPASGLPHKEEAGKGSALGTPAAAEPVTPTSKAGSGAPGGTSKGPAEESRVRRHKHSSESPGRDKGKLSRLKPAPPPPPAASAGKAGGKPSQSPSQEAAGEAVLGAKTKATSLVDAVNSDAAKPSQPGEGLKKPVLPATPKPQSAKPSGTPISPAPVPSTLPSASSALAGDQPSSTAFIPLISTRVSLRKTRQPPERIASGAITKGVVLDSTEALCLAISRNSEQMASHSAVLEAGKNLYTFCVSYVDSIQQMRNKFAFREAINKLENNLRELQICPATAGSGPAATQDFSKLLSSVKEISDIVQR
T22 sequence (O75676 411-674 limits assumed): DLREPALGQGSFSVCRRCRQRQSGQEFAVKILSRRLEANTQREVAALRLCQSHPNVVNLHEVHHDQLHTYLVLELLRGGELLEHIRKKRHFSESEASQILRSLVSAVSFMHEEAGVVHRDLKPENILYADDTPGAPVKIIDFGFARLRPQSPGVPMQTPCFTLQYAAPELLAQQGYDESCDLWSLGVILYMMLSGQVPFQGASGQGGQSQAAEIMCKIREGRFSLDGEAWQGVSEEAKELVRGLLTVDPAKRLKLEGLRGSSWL
T21 sequence (Q92630 whole entry): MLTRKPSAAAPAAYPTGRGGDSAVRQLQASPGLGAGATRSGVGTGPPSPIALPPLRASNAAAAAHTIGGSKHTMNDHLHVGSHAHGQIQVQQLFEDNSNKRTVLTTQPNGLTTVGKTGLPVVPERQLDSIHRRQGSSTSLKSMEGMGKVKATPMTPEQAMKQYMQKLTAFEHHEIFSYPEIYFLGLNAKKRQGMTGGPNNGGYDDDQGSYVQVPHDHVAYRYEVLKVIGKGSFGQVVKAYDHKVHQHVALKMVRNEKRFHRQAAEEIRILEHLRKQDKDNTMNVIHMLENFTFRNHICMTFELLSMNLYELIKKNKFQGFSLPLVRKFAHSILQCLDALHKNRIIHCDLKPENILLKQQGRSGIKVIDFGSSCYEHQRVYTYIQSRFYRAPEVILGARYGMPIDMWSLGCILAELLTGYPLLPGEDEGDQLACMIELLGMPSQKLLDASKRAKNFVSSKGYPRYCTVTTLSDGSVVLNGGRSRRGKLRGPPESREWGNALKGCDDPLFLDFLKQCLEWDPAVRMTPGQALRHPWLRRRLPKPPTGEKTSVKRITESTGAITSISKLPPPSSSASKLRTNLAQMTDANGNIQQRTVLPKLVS
T19 sequence (O75582 426-687 limits assumed): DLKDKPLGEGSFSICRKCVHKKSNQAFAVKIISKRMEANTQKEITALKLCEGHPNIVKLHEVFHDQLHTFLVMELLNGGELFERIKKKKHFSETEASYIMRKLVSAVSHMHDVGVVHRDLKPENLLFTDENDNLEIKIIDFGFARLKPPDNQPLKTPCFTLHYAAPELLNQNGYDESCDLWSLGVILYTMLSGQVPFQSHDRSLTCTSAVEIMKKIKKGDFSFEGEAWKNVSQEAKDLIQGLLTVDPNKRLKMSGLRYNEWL

Cc1cn(CCN2CCN(c3ccccc3-c3cc(C#N)cc(C(=O)NCCCN4CCCC4)c3)CC2)c2ccccc12 [LLY-507, 3-cyano-5-{2-[4-[2-(3-methylindol-1-yl)ethyl]piperazin-1-yl]-phenyl}-N-[(3-pyrrolidin-1-yl)propyl]benzamide]
pIC50 (hLRRK2(G2019S)): < 4.70 | pIC50 (hPPARδ): < 5.00 | pIC50 (hERK4): < 4.70 | pIC50 (hLOK): < 4.70 | pIC50 (hEGFR): < 4.70 | % Effect, Stimulation (hH1 [1]): -2.8% | pIC50 (hEGFR(T790M)): < 4.70 | pIC50 (hMERTK): < 4.70 | pIC50 (hMAP4K3): < 4.70 | pIC50 (hEPHB1): < 4.70 | pIC50 (hTRKA): < 4.70 | pIC50 (hCAMK1G): < 4.70 | pIC50 (hERK1): < 4.70 | pIC50 (hABL1(pE255K)): < 4.70 | pIC50 (hWEE2): < 4.70 | pIC50 (hSBK1): < 4.70 | % Effect, Potentiation (hD2L): -27.5% | pIC50 (hBTK): < 4.70 | pIC50 (hJNK3): < 4.70 | pIC50 [2]: < 4.70 | pIC50 (hARK5): < 4.70 | pIC50 (hDYRK2): < 4.70 | inhibition at 10 µM (hH1 [3]): 30.1% | pIC50 [4]: < 4.70 | pIC50 (hCAMK1D): < 4.70 | pIC50 (hTESK1): < 4.70 | pIC50 (hCSNK1A1L): < 4.70 | pIC50 (hBMPR2): < 4.70 | pIC50 (hSTK33): < 4.70 | pIC50 (hMEK5): < 4.70
